Data as given in ChEMBL document CHEMBL5154783, “Design, synthesis, and evaluation of novel 3-thiophene derivatives as potent fungistatic and fungicidal reagents based on a conformational restriction strategy” (Eur J Med Chem, 2022).
≈ marks a conversion by molar mass, not a printed value.

Assays:
Format in all cases: functional
Candida albicans [1] = test: Antifungal activity against FLC-resistant Candida albicans 632 assessed as fungal growth inhibition by CLSI based serial microbroth dilution method
Pichia kudriavzevii = test: Antifungal activity against Candida krusei GIM 2.1 assessed as fungal growth inhibition by CLSI based serial microbroth dilution method
Aspergillus fumigatus = test: Antifungal activity against Aspergillus fumigatus CGMCC 3.7795 assessed as fungal growth inhibition by CLSI based serial microbroth dilution method
Candida tropicalis = test: Antifungal activity against Candida tropicalis CGMCC 2.3739 assessed as fungal growth inhibition by CLSI based serial microbroth dilution method
Candida albicans [2] = test: Antifungal activity against FLC-resistant Candida albicans 311 assessed as fungal growth inhibition by CLSI based serial microbroth dilution method
Candida albicans [3] = test: Antifungal activity against FLC-resistant Candida albicans 100 assessed as fungal growth inhibition by CLSI based serial microbroth dilution method
Candida albicans [4] = test: Antifungal activity against FLC-resistant Candida albicans 901 assessed as fungal growth inhibition by CLSI based serial microbroth dilution method
Cryptococcus neoformans = test: Antifungal activity against Cryptococcus neoformans CGMCC 2.3161 assessed as fungal growth inhibition by CLSI based serial microbroth dilution method
Candida albicans [5] = test: Antifungal activity against FLC and ITC-resistant Candida albicans 17 assessed as fungal growth inhibition by CLSI based serial microbroth dilution method
Candida albicans [6] = test: Antifungal activity against FLC-resistant Candida albicans 103 assessed as fungal growth inhibition by CLSI based serial microbroth dilution method
Candida albicans [7] = test: Antifungal activity against FLC-resistant Candida albicans CaR assessed as fungal growth inhibition by CLSI based serial microbroth dilution method
Candida albicans [8] = test: Antifungal activity against FLC-resistant Candida albicans 904 assessed as fungal growth inhibition by CLSI based serial microbroth dilution method
Candida parapsilosis = test: Antifungal activity against Candida parapsilosis GIM 2.190 assessed as fungal growth inhibition by CLSI based serial microbroth dilution method; details: Lodderomyces parapsilosis
Candida albicans [9] = test: Antifungal activity against Candida albicans ATCC SC5314 assessed as fungal growth inhibition by CLSI based serial microbroth dilution method
Nakaseomyces glabratus = test: Antifungal activity against Candida glabrata clinical isolate assessed as fungal growth inhibition by CLSI based serial microbroth dilution method
Candida albicans [10] = test: Antifungal activity against Candida albicans CPCC400616 assessed as fungal growth inhibition by CLSI based serial microbroth dilution method

## Fc1ccccc1CC1(Cn2ccnc2)COC(c2ccc(-c3ccsc3)cc2)=N1 (stereo unspecified)
Candida albicans [1]
  MIC: 8 µg/mL (≈ 19.2 µM)
Pichia kudriavzevii
  MIC: 1 µg/mL (≈ 2.4 µM)
Aspergillus fumigatus
  MIC: 32 µg/mL (≈ 76.6 µM)
Candida tropicalis
  MIC: 0.125 µg/mL (≈ 0.299 µM)
Candida albicans [2]
  MIC: 4 µg/mL (≈ 9.58 µM)
Candida albicans [3]
  MIC: 2 µg/mL (≈ 4.79 µM)
Candida albicans [4]
  MIC: 2 µg/mL (≈ 4.79 µM)
Cryptococcus neoformans
  MIC: 16 µg/mL (≈ 38.3 µM)
Candida albicans [5]
  MIC: 8 µg/mL (≈ 19.2 µM)
Candida albicans [6]
  MIC: 1 µg/mL (≈ 2.4 µM)
Candida albicans [7]
  MIC: 32 µg/mL (≈ 76.6 µM)
Candida albicans [8]
  MIC: 2 µg/mL (≈ 4.79 µM)
Candida parapsilosis
  MIC: 0.5 µg/mL (≈ 1.2 µM)
Candida albicans [9]
  MIC: 0.125 µg/mL (≈ 0.299 µM)
Nakaseomyces glabratus
  MIC: 16 µg/mL (≈ 38.3 µM)
Candida albicans [10]
  MIC: 0.5 µg/mL (≈ 1.2 µM)

## FC(F)(F)c1cccc(CC2(Cn3ccnc3)COC(c3ccc(-c4ccsc4)cc3)=N2)c1 (stereo unspecified)
Pichia kudriavzevii
  MIC: > 64 µg/mL
Aspergillus fumigatus
  MIC: > 64 µg/mL
Candida tropicalis
  MIC: > 64 µg/mL
Cryptococcus neoformans
  MIC: > 64 µg/mL
Candida parapsilosis
  MIC: > 64 µg/mL
Candida albicans [9]
  MIC: > 64 µg/mL
Nakaseomyces glabratus
  MIC: > 64 µg/mL
Candida albicans [10]
  MIC: > 64 µg/mL

## c1ccc(CC2(Cn3ccnc3)COC(c3ccc(-c4cncnc4)cc3)=N2)cc1 (stereo unspecified)
Pichia kudriavzevii
  MIC: > 64 µg/mL
Aspergillus fumigatus
  MIC: > 64 µg/mL
Candida tropicalis
  MIC: > 64 µg/mL
Cryptococcus neoformans
  MIC: > 64 µg/mL
Candida parapsilosis
  MIC: > 64 µg/mL
Candida albicans [9]
  MIC: > 64 µg/mL
Nakaseomyces glabratus
  MIC: > 64 µg/mL
Candida albicans [10]
  MIC: > 64 µg/mL

## c1ccc(CC2(Cn3ccnc3)COC(c3noc4c3CCc3ccccc3-4)=N2)cc1 (stereo unspecified)
Pichia kudriavzevii
  MIC: > 64 µg/mL
Aspergillus fumigatus
  MIC: > 64 µg/mL
Candida tropicalis
  MIC: 32 µg/mL (≈ 78 µM)
Cryptococcus neoformans
  MIC: > 64 µg/mL
Candida parapsilosis
  MIC: > 64 µg/mL
Candida albicans [9]
  MIC: 16 µg/mL (≈ 39 µM)
Nakaseomyces glabratus
  MIC: 16 µg/mL (≈ 39 µM)
Candida albicans [10]
  MIC: 32 µg/mL (≈ 78 µM)

## c1ccc(CC2(Cn3ccnc3)COC(c3cc4ccccc4o3)=N2)cc1 (stereo unspecified)
Pichia kudriavzevii
  MIC: > 64 µg/mL
Aspergillus fumigatus
  MIC: > 64 µg/mL
Candida tropicalis
  MIC: 8 µg/mL (≈ 22.4 µM)
Cryptococcus neoformans
  MIC: > 64 µg/mL
Candida parapsilosis
  MIC: > 64 µg/mL
Candida albicans [9]
  MIC: > 64 µg/mL
Nakaseomyces glabratus
  MIC: > 64 µg/mL
Candida albicans [10]
  MIC: > 64 µg/mL

## Clc1ccc(CC2(Cn3ccnc3)COC(c3ccc(-c4ccsc4)cc3)=N2)cc1 (stereo unspecified)
Pichia kudriavzevii
  MIC: > 64 µg/mL
Aspergillus fumigatus
  MIC: > 64 µg/mL
Candida tropicalis
  MIC: > 64 µg/mL
Cryptococcus neoformans
  MIC: > 64 µg/mL
Candida parapsilosis
  MIC: > 64 µg/mL
Candida albicans [9]
  MIC: > 64 µg/mL
Nakaseomyces glabratus
  MIC: > 64 µg/mL
Candida albicans [10]
  MIC: > 64 µg/mL

## c1ccc(CC2(Cn3ccnc3)COC(c3ccc4c(c3)OCO4)=N2)cc1 (stereo unspecified)
Pichia kudriavzevii
  MIC: > 64 µg/mL
Aspergillus fumigatus
  MIC: > 64 µg/mL
Candida tropicalis
  MIC: > 64 µg/mL
Cryptococcus neoformans
  MIC: > 64 µg/mL
Candida parapsilosis
  MIC: > 64 µg/mL
Candida albicans [9]
  MIC: > 64 µg/mL
Nakaseomyces glabratus
  MIC: > 64 µg/mL
Candida albicans [10]
  MIC: > 64 µg/mL

## FC(F)(F)Oc1ccc(CC2(Cn3ccnc3)COC(c3ccc(-c4ccsc4)cc3)=N2)cc1 (stereo unspecified)
Pichia kudriavzevii
  MIC: > 64 µg/mL
Aspergillus fumigatus
  MIC: > 64 µg/mL
Candida tropicalis
  MIC: > 64 µg/mL
Cryptococcus neoformans
  MIC: > 64 µg/mL
Candida parapsilosis
  MIC: > 64 µg/mL
Candida albicans [9]
  MIC: > 64 µg/mL
Nakaseomyces glabratus
  MIC: > 64 µg/mL
Candida albicans [10]
  MIC: > 64 µg/mL

## CCC(C)n1ncn(-c2ccc(N3CCN(c4ccc(OCC5COC(Cn6cncn6)(c6ccc(Cl)cc6Cl)O5)cc4)CC3)cc2)c1=O (stereo unspecified) [ITRACONAZOLE]
Pichia kudriavzevii
  MIC: 0.125 µg/mL (≈ 0.177 µM)
Aspergillus fumigatus
  MIC: 0.125 µg/mL (≈ 0.177 µM)
Candida tropicalis
  MIC: < 0.03 µg/mL
Cryptococcus neoformans
  MIC: 0.125 µg/mL (≈ 0.177 µM)
Candida parapsilosis
  MIC: 0.125 µg/mL (≈ 0.177 µM)
Candida albicans [9]
  MIC: 0.03 µg/mL (≈ 0.0425 µM)
Nakaseomyces glabratus
  MIC: 0.125 µg/mL (≈ 0.177 µM)
Candida albicans [10]
  MIC: < 0.03 µg/mL

## Fc1cccc(CC2(Cn3ccnc3)COC(c3ccc(-c4ccsc4)cc3)=N2)c1 (stereo unspecified)
Pichia kudriavzevii
  MIC: 1 µg/mL (≈ 2.4 µM)
Aspergillus fumigatus
  MIC: > 64 µg/mL
Candida tropicalis
  MIC: > 64 µg/mL
Cryptococcus neoformans
  MIC: > 64 µg/mL
Candida parapsilosis
  MIC: > 64 µg/mL
Candida albicans [9]
  MIC: > 64 µg/mL
Nakaseomyces glabratus
  MIC: > 64 µg/mL
Candida albicans [10]
  MIC: > 64 µg/mL

## Fc1cccc(F)c1CC1(Cn2cnnn2)COC(c2ccc(-c3ccsc3)cc2)=N1 (stereo unspecified)
Pichia kudriavzevii
  MIC: > 64 µg/mL
Aspergillus fumigatus
  MIC: > 64 µg/mL
Candida tropicalis
  MIC: > 64 µg/mL
Cryptococcus neoformans
  MIC: > 64 µg/mL
Candida parapsilosis
  MIC: > 64 µg/mL
Candida albicans [9]
  MIC: 16 µg/mL (≈ 36.6 µM)
Nakaseomyces glabratus
  MIC: > 64 µg/mL
Candida albicans [10]
  MIC: 16 µg/mL (≈ 36.6 µM)

## Fc1cccc(F)c1CC1(Cn2ccnn2)COC(c2ccc(-c3ccsc3)cc2)=N1 (stereo unspecified)
Pichia kudriavzevii
  MIC: > 64 µg/mL
Aspergillus fumigatus
  MIC: > 64 µg/mL
Candida tropicalis
  MIC: > 64 µg/mL
Cryptococcus neoformans
  MIC: > 64 µg/mL
Candida parapsilosis
  MIC: > 64 µg/mL
Candida albicans [9]
  MIC: 16 µg/mL (≈ 36.7 µM)
Nakaseomyces glabratus
  MIC: > 64 µg/mL
Candida albicans [10]
  MIC: 16 µg/mL (≈ 36.7 µM)

## c1ccc(CC2(Cn3ccnc3)COC(c3ccc4ccccc4c3)=N2)cc1 (stereo unspecified)
Pichia kudriavzevii
  MIC: > 64 µg/mL
Aspergillus fumigatus
  MIC: > 64 µg/mL
Candida tropicalis
  MIC: > 64 µg/mL
Cryptococcus neoformans
  MIC: 4 µg/mL (≈ 10.9 µM)
Candida parapsilosis
  MIC: > 64 µg/mL
Candida albicans [9]
  MIC: > 64 µg/mL
Nakaseomyces glabratus
  MIC: > 64 µg/mL
Candida albicans [10]
  MIC: > 64 µg/mL

## Cc1cccc(CC2(Cn3ccnc3)COC(c3ccc(-c4ccsc4)cc3)=N2)c1 (stereo unspecified)
Pichia kudriavzevii
  MIC: > 64 µg/mL
Aspergillus fumigatus
  MIC: > 64 µg/mL
Candida tropicalis
  MIC: > 64 µg/mL
Cryptococcus neoformans
  MIC: > 64 µg/mL
Candida parapsilosis
  MIC: > 64 µg/mL
Candida albicans [9]
  MIC: > 64 µg/mL
Nakaseomyces glabratus
  MIC: > 64 µg/mL
Candida albicans [10]
  MIC: > 64 µg/mL

## c1ccc(CC2(Cn3ccnc3)COC(c3ccc(-c4ccsc4)cc3)=N2)cc1 (stereo unspecified)
Candida albicans [1]
  MIC: 16 µg/mL (≈ 40 µM)
Pichia kudriavzevii
  MIC: > 64 µg/mL
Aspergillus fumigatus
  MIC: 16 µg/mL (≈ 40 µM)
Candida tropicalis
  MIC: 0.25 µg/mL (≈ 0.626 µM)
Candida albicans [2]
  MIC: 4 µg/mL (≈ 10 µM)
Candida albicans [3]
  MIC: 2 µg/mL (≈ 5.01 µM)
Candida albicans [4]
  MIC: 4 µg/mL (≈ 10 µM)
Cryptococcus neoformans
  MIC: 8 µg/mL (≈ 20 µM)
Candida albicans [5]
  MIC: 4 µg/mL (≈ 10 µM)
Candida albicans [6]
  MIC: 2 µg/mL (≈ 5.01 µM)
Candida albicans [7]
  MIC: 32 µg/mL (≈ 80.1 µM)
Candida albicans [8]
  MIC: 2 µg/mL (≈ 5.01 µM)
Candida parapsilosis
  MIC: 0.5 µg/mL (≈ 1.25 µM)
Candida albicans [9]
  MIC: 0.5 µg/mL (≈ 1.25 µM)
Nakaseomyces glabratus
  MIC: > 64 µg/mL
Candida albicans [10]
  MIC: 0.25 µg/mL (≈ 0.626 µM)
